The source of these data is patent US20230114177A1, “NOVEL DEUTERIUM-SUBSTITUTED PYRIMIDINE DERIVATIVE AND PHARMACEUTICAL COMPOSITION COMPRISING SAME” (ONCOBIX CO., LTD., priority 2019, published 2023).

In series [1] the test system is BaF3 (de119/T790M/C797S). Description: Measurement of inhibitory effect on cancer cell growth (GI50). In kind it is cell-based. Conditions: for GI50: Mus musculus, concentration to inhibit 50% of cell growth, BaF3 cells with EGFR de119/T790M/C797S; for activity against cancer cell lines expressing the C797S mutant epidermal growth factor receptor: summary in words of Table 1.

Series [2] in a line: Pharmacokinetic evaluation in rats. In kind it is in vivo. Conditions: single dose; for absolute absorption rate: compared with hydrogen-substituted reference substance (FIGS. 1 to 4). How it is done:
Pharmacokinetic tests were carried out in rats as follows for the compounds obtained from Examples 1 and 2 above and the compound of Example 2 in which deuterium was substituted with hydrogen (hydrogen-substituted reference substance).
After the test substances were prepared to 2.5 or 5 mg/mL using WFI (water for injection), the rats were administered as a single dose at a prescribed dose (10 mL/kg), and blood was collected at a predetermined time (0, 0.25, 0.5, 1, 2, 4, 6, 8, 10, 24 hours), and then plasma was separated. Analysis of the drug was carried out using HPLC (XBridge column C18, Waters, mobile phase of 0.1% formic acid:acetonitrile (30:70, %/%)) and MS/MS (ESI positive, MRM), and concentrations of 5, 50, 100, 500, 1,000, and 5,000 ng/ml were prepared and measured by mixing rat blank plasma and each commercial standard solution at a ratio of 9:1. In addition, QC sample preparations were prepared at concentrations of 100, 750, and 2,500 ng/ml by mixing rat blank plasma and QC standard solution in a 9:1 ratio. As for the pretreatment method, 100 μl of the plasma sample was transferred to a centrifuge tube, and 10 μl of the internal standard solution and 300 μl of methanol were added thereto, and then mixed for about 30 seconds. The tube was centrifuged for about 5 minutes at a rotation speed of 12,000 rpm (4° C.) using a centrifuge, and the supernatant was taken, transferred to an LC vial and then injected into the device. Thereafter, the concentration of the drug in rat plasma was quantified by applying the previously verified assay. For pharmacokinetic parameters, WinNonlin 5.2 (Pharsight, USA) program was used, and AUC0-t, AUC0-∞, Cmax, Tmax, and t1/2 were calculated by noncompartment modeling (best fit). Pharmacokinetic parameter results were expressed as mean and standard deviation (SD), and statistically processed using the SPSS program (Statistical Package for the Social Sciences, 10.0K, USA).

On to `[2H]C([2H])([2H])N1CCN(C2CCN(c3ccc(Nc4ncc(Cl)c(Nc5ccccc5N(C)S(C)(=O)=O)n4)c(OC)c3)CC2)CC1` [Example 1, N-(2-((5-Chloro-2-((2-Methoxy-4-(4-(4-(Methyl-d3)Piperazin-1-Yl)Piperidin-1-Yl)Phenyl)Amino)Pyrimidin-4-Yl)Amino)Phenyl)-N-Methylmethanesulfonamide], for which, in series [1], the GI50 is no more than 500 nM and the “activity against cancer cell lines expressing the C797S mutant epidermal growth factor receptor” value (“activity” below) was “excellent activity”. Also, the absolute absorption rate entry in series [2] is reported as “equivalent to or greater than the control drug”.
With `[2H]C([2H])([2H])N(c1ccccc1Nc1nc(Nc2ccc(N3CCC(N4CCN(C)CC4)CC3)cc2OC)ncc1Cl)S(C)(=O)=O` [Example 2], in series [1], the GI50 is no more than 500 nM and the “activity” value is recorded as “excellent activity”. Besides, in series [2], the “relative absorption rate compared to the hydrogen-substituted reference substance” value is 111.4% and the absolute absorption rate entry was “equivalent to or greater than the control drug”.
`C=CC(=O)Nc1cc(Nc2nccc(-c3cn(C)c4ccccc34)n2)c(OC)cc1N(C)CCN(C)C` [Osimertinib, osimertinib, reference compound]: in series [1], the GI50 was greater than 1000 nM and the “activity” value is given as “poor activity”.

A word on the GI50: it is the concentration giving 50% growth inhibition.
